Measurements from patent US8148385B2, “Substituted [1,2,3] triazolo[4,5-d]pyrimidine derivatives as ADP P2Y12 receptor antagonists” (Janssen Pharmaceutica N.V., priority 2006, dated 2012).

What was measured:
washed platelets = experiment: In vitro platelet aggregation; type: cell-based; details: Homo sapiens, washed platelets from healthy volunteers, agonist (ADP) at 60-70% aggregation, % inhibition of control ADP response
Method: Platelet aggregation studies were performed according to a published method (Bednar, B., Condra, C., Gould, R. J., and Connolly, T. M., Throm. Res., 77:453-463 (1995). Platelet-rich plasma (PRP) concentrates prepared from healthy volunteers who were aspirin free for at least 7 days by venipuncture using ACD-A as anticoagulant was purchased from Biological Specialties, Inc. (Colmar, Pa.). PRP was centrifuged at 730 g for 15 min. The platelet pellet was washed twice in CGS buffer (13 mM sodium citrate, 30 mM glucose, 120 mM NaCl, pH 6.5) containing 1 μ/ml apyrase (grade V, Sigma-Aldrich, St. Louis, Mo.), 1 mM EGTA, and resuspended in Tyrode's buffer (140 mM NaCl, 2.7 mM KCl, 12 mM NaHCO3, 0.76 mM Na2HPO4, 5.5 mM dextrose, 5.0 mM Hepes, 0.2% BSA, pH 7.4). The platelets were diluted to 3×10^8 platelets/ml and kept >45 min at 37° C. before use. 105 μl of washed platelets, 2 mM CaCl2 and […] of fibrinogen were added to a 96-well microliter plate.
Platelet aggregation was initiated by the addition of serial concentrations of ADP (BioData Corp. Horsham, Pa.). Buffer was added to one set of control wells. The assay plate was stirred constantly and intermittently placed in a microplate reader (Softmax, Molecular Devices, Menlo Park, Calif.) to read optical density (650 nm) at 0 and 5 minutes after the addition of the compound solutions. Aggregation was calculated as the decrease in optical density between the time 0- and 5-min measurements and expressed as % of aggregation. For the inhibition assay, platelet aggregation was conducted as described above except for compound additions. Test compounds were prepared in 100% DMSO and stored.
On the day of the assay, test compounds were diluted in the buffer containing 3% of DMSO as a 10× working solution. 15 μl of compound solutions were added to 105 μl of platelets 5 min prior to the addition of CaCl2 and fibrinogen.

P2Y12 receptor = biological target: T1, P2Y12 receptor (Homo sapiens, UniProt Q9H244); experiment: Whole cell receptor binding assay for 2-MeS[3H]-ADP; details: whole HEK 293 cells transfected with P2Y12; 2-MeS[3H]-ADP 3 nM; 30 min at 37° C.; read-out: Inhibition of Receptor Binding IC50
T1 construct: expressed in transfected cells
Method: A whole cell-binding assay for 2-MeS [^3H]-ADP (Custom synthesized by Amersham BioScience, Piscataway, N.J.) to the P2Y12 receptor was performed.
A P2Y12 cDNA containing hygromycin resistant gene was transfected in HEK 293 cells. A stable cell line was obtained by a cloning selection method. The cells were cultured in DMEM supplemented with 10% FBS and 1× of p/s.
On the day of the assay, the cells were harvested and resuspended in 0.25% BSA-DMEM and adjusted to a cell concentration of 1.6×10^6/ml. […] The reaction was then incubated for 30 min at 37° C. and stopped by adding cold DMEM. […] The plates were dyed in a 37° C. oven for 1-2 hours and 50 μl of MicroScint-20 (PerkinElmer) was added to each well. The radioactivity was measured using a TOPCOUNT beta counter (Packard).

ADP P2Y12 = biological target: T2, ADP P2Y12 (Homo sapiens, UniProt Q9H244); experiment: FLIPR calcium assay transducing Gi-coupled signaling to the Gq pathway (inhibition of calcium mobilization); type: cell-based; details: HEK 293 cells co-transfected with P2Y12 and Gqi5, ADP at EC60-70 dose
T2 construct: expressed in transfected cells
Source text: A FLIPR Calcium Assay Transducing Gi-Coupled Signaling to the Gq Pathway
The ADP P2Y12 subtype is a Gi coupled GPCR, which mediates inhibition of adenylate cyclase leading to decreased cAMP while Gq proteins primarily activate phospholipase C, which stimulates inositol-1,4,5-triphosphate (IP3) formation and a subsequent increase in intracellular Ca^2+ concentration, which can be easily measured by FLIPR. Prior to the development of a method to convert a Gi coupled GPCR signaling to a Gq coupled GPCR signaling, a significant barrier existed for the functional testing and screening of Gi coupled GPCRs. One popular method, GTPγS migration, is slow, produces a small signal and generates radioactive waste. The discovery that a small switch in the amino acid sequence in the Gi protein could convert it to a protein mediating a Gq coupled response has led to the development of robust, high throughput assays for this valuable receptor subtype.
The FLIPR-based HTS assay transducing the Gi signaling to the Gq pathway is described below.
pcDNA3hygroP2Y12 containing a hygromycin resistance gene and pLEC1-Gqi5-HA containing a neomycin resistance gene (licensed from Molecular Devices, Sunnyvale, Calif.) were co-transfected into Human embryonic kidney (HEK) 293 cells with SuperFect (Qiagen, Valencia, Calif.). Cell clones were selected in the presence of 600 μg/ml hygromycin B (Life Technologies, Carlsbad, Calif.) and 1 mg/ml of G418 (Mediatech, Herndon, Va.). Drug resistant colonies were picked and screened by FLIPR and the gene expression was further confirmed by RT-PCR. Positive clones were maintained in growth medium (DMEM supplemented with 10% FBS, 1×p/s) containing 400 μg/ml of G418 and 200 μg/ml of hygromycin.
The day before the assay, cells are seeded in clear, flat-bottom black-wall, tissue culture treated polystyrene 96- or 384-well plates and incubated at 37° C., 5% CO2. 50 μl of complete dye loading solution (FLIPR Calcium Assay Kit, Molecular Devices) was added to each well containing 100 μl of culture media. The cells were incubated for at least 30 min at 37° C., in 5% CO2 before initiating the assay on the FLIPR. The agonist effect of ADP was tested and EC50 was determined prior to compound testing. The EC60-70 dose was used.
The antagonist compounds were prepared at 4× and the agonists were diluted at 5× the concentration desired in the test wells, and then aliquoted into the sample plates. The sample plates and the cell plate were placed in the FLIPR assay chamber. A first addition (50 μl) was made at the start of reading and a second addition (50 μl) was made after 5 min of reading. Raw fluorescence data was exported for each well and tabulated versus time within an ASCII file. Data was then imported into Excel and the peak response over the basal level was determined. The percent inhibition for each compound was calculated by the change in fluorescent density as a % inhibition of the control ADP response to obtain an IC50, as shown in Table 1 (wherein N/A means Not Applicable).

T2 sequence (Q9H244 whole entry): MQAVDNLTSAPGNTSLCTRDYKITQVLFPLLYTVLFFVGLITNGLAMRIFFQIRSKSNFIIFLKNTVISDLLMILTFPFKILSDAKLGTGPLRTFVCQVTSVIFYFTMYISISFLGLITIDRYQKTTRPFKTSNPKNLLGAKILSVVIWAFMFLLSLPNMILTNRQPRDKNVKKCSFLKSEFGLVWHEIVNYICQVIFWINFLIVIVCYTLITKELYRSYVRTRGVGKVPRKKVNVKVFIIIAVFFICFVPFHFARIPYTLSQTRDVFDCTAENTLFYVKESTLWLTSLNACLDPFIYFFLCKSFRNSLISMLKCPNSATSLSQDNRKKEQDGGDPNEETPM
T1 sequence (Q9H244 whole entry): as above

| IC50 (P2Y12 receptor) | IC50 (ADP P2Y12) | Structure (SMILES) | IC50 (washed platelets) |
| --- | --- | --- | --- |
| 9.03 µM | 2.12 µM | CCCCNc1nc(SCCC)nc2c1nnn2[C@@H]1C=C[C@H](O)[C@@H](O)[C@H]1O [Cpd 1, (1S,2R,3S,6R)-6-(7-butylamino-5-propylsulfanyl-[1,2,3]triazolo[4,5-d]pyrimidin-3-yl)-cyclohex-4-ene-1,2,3-triol] | 15.2 µM |
|  | > 30 µM | CCCSc1nc(NCC2CCCN2CC)c2nnn([C@@H]3CC[C@H](O)[C@@H](O)[C@H]3O)c2n1 (stereo partly drawn) [Cpd 21, (1S,2R,3S,4R)-4-{7-[(1-ethyl-pyrrolidin-2-ylmethyl)-amino]-5-propylsulfanyl-[1,2,3]triazolo[4,5-d]pyrimidin-3-yl}-cyclohexane-1,2,3-triol] | > 30 µM |
| 1.49 µM | 2.2 µM | CCCSc1nc(N[C@@H]2C[C@H]2c2ccccc2)c2nnn([C@@H]3C=C[C@H](OCC(=O)O)[C@@H](O)[C@H]3O)c2n1 (mixture of isomers) [Cpd 11, [(1S,4R,5S,6S)-5,6-dihydroxy-4-{7-[(1RS,2SR)-2-phenyl-cyclopropylamino]-5-propylsulfanyl-[1,2,3]triazolo[4,5-d]pyrimidin-3-yl}-cyclohex-2-enyloxy]-acetic acid] | 2.91 µM |
|  | > 30 µM | CCCSc1nc(NC[C@H]2CCCO2)c2nnn([C@@H]3CC[C@H](O)[C@@H](O)[C@H]3O)c2n1 [Cpd 17, (1S,2R,3S,4R)-4-(5-propylsulfanyl-7-{[(2R)-tetrahydro-furan-2-ylmethyl]-amino}-[1,2,3]triazolo[4,5-d]pyrimidin-3-yl)-cyclohexane-1,2,3-triol] | > 30 µM |
| 5.04 µM | 2.96 µM | CCCSc1nc(N[C@@H]2C[C@H]2c2ccccc2)c2nnn([C@H]3[C@H](O)[C@H](O)[C@@H](O)[C@H](O)[C@@H]3O)c2n1 (racemic) [Cpd 9, (1R,2R,4S,5S)-6-{7-[(1RS,2SR)-phenyl-cyclopropylamino]-5-propylsulfanyl-[1,2,3]triazolo[4,5-d]pyrimidin-3-yl}-cyclohexane-1,2,3,4,5-pentaol] | 15 µM |
| 2.1 µM | 0.745 µM | CCCSc1nc(N[C@@H]2C[C@H]2c2ccccc2)c2nnn([C@@H]3C=C[C@H](O)[C@@H](O)[C@H]3O)c2n1 (mixture of isomers) [Cpd 5, (1S,2R,3S,6R)-6-{7-[(1RS,2SR)-2-phenyl-cyclopropylamino]-5-propylsulfanyl-[1,2,3]triazolo[4,5-d]pyrimidin-3-yl}-cyclohex-4-ene-1,2,3-triol] | 5.05 µM |

| Structure (SMILES) | IC50 (P2Y12 receptor) | IC50 (ADP P2Y12) | IC50 (washed platelets) |
| --- | --- | --- | --- |
| CCCSc1nc(N[C@@H]2C[C@H]2c2ccccc2)c2nnn([C@@H]3CC[C@H](O)[C@@H](O)[C@H]3O)c2n1 (mixture of isomers) [Cpd 14, (1S,2R,3S,4R)-4-{7-[(1RS,2SR)-2-phenyl-cyclopropylamino]-5-propylsulfanyl-[1,2,3]triazolo[4,5-d]pyrimidin-3-yl}-cyclohexane-1,2,3-triol] | 1.35 µM | 0.456 µM | 3.1 µM |
